From publication PMC7801380, “Development of phenotypic assays for identifying novel blockers of L-type calcium channels in neurons” (Scientific Reports, 2021) come the findings set out here.

Where two headings read alike, the source gives them in different places. Where only a bound is given, the exact number is not on record here.

Data set [1] concerns L-type calcium channels (LTCCs). Put plainly: Calcium flux (FLIPR) assay, Bay K8644-induced responses in rat primary cortical cultures. The class given is cell-based. Conditions: for Block of Bay K8644-evoked calcium fluorescent response: compound 3 µM.
The next data set relates to LTCC currents. Kind of data set: Patch clamp, LTCC currents in rat cortical neurons. The data set is classed as cell-based.
A further data set deals with CaV1.2 (Homo sapiens, UniProt Q13936). Put plainly: in vitro. The following applies: pH 7.4.
Chain of CaV1.2 (Q13936 1-2138 isoform Q13936-12): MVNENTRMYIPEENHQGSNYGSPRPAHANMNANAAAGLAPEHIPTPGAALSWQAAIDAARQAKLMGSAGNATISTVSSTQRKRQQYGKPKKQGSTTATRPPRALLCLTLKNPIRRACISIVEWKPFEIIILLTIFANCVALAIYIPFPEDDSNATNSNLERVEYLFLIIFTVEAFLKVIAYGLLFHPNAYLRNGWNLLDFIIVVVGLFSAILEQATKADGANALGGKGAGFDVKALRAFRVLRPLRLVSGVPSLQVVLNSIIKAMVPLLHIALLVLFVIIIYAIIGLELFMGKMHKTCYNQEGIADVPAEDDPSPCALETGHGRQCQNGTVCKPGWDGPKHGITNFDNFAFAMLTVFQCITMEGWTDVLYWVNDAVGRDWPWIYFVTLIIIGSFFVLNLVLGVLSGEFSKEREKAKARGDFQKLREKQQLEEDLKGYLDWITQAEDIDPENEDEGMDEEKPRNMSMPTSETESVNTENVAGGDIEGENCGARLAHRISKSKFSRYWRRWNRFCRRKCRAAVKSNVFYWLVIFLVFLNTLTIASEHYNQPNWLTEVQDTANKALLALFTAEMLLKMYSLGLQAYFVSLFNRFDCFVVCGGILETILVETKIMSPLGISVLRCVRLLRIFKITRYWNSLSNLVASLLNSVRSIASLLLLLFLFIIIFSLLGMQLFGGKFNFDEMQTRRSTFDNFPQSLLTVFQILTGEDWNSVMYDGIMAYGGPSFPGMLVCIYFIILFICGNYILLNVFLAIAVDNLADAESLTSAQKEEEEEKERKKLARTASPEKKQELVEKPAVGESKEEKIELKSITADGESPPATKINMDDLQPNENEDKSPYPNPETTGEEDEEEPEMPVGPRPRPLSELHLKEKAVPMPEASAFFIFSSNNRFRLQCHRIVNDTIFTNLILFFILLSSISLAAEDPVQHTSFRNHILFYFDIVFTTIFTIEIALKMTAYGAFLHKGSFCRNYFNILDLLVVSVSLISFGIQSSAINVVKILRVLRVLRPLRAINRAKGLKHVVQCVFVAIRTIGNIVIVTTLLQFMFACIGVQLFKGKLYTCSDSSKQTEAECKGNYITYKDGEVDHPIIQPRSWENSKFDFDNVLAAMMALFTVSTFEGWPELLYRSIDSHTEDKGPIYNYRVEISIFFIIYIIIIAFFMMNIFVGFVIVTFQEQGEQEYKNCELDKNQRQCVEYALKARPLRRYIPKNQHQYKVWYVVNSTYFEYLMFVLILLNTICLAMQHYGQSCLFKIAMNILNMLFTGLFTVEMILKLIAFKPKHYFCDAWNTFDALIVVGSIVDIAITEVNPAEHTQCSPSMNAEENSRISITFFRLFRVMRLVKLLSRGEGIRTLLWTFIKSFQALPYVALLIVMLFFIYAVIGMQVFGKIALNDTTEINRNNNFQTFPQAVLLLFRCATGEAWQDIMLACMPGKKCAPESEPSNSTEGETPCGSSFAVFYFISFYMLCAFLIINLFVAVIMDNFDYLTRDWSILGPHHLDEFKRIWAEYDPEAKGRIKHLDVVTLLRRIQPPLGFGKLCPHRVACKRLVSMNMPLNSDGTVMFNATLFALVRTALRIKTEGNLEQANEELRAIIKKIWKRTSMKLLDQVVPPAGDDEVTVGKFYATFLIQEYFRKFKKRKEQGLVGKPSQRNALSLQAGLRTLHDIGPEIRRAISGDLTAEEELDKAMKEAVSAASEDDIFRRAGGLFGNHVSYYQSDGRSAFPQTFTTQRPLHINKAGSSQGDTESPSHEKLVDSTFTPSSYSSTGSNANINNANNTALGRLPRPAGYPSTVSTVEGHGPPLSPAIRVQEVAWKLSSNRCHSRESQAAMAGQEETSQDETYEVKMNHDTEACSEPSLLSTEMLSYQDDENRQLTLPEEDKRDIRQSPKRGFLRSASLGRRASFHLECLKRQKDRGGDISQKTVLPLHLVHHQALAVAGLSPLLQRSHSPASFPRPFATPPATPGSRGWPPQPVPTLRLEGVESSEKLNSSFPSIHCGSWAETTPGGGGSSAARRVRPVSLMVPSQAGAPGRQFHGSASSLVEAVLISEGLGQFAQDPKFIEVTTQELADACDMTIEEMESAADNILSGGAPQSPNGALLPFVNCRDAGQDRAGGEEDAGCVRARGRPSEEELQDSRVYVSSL
A further data set has as its target Phenylalkylamine site. Kind of data set: Rat cortex binding, phenylalkylamine site ([3H]D888). The following applies: [3H]D888 3 nM. How it is done:
(§1) The in-vitro binding studies were conducted by Eurofins (France) using rat cortex. […] The IC50 values (the concentration that causes half-maximal inhibition of control specific binding) were determined by non-linear regression analysis of the competition curves using Hill equation: Y = […] Y = specific binding, A = left asymptote of the curve, D = right asymptote of the curve, C = compound concentration, and nH = slope factor. Analyses were performed using software developed at Eurofins (Hill software) and validated by comparison with data generated by the commercial software SigmaPlot 4.0. […] KD values were determined from Scatchard plots.

The target of another data set is Benzothiazepine site. Kind of data set: Rat cortex binding, benzothiazepine site ([3H]diltiazem). The following applies: [3H]diltiazem 15 nM. How it is done:
as §1

The target in a further data set is DHP site. Put plainly: Rat cortex binding, DHP site ([3H]nitrendipine). The following applies: [3H]nitrendipine 0.1 nM. How it is done: as §1
The next data set deals with VGCCs. Put plainly: Calcium fluorescent response to high [K+] in rat cortical cultures. The data set is classed as cell-based. The following applies: 100 mM K+, compound 3 µM, holding [K+] 20 mM.
[2] abbreviates: PW library screen hit confirmation, 1.1 µM Bay K8644, holding [K+] 20 mM, read-out: FLIPR IC50 Rat cortical culture.
[3] abbreviates: Vhold/Vtest -50/-20 mV, 300 nM Bay K8644.
Setting [4] is: Vhold/Vtest -50/-20 mV, 300 nM Bay K8644, read-out: IC50, LTCC currents.
Setting [5] is: 300 nM Bay K8644, holding [K+] 20 mM, read-out: IC50, inhibition of Bay K-induced responses (calcium flux).

Regarding `COC(=O)C1=C(C)NC(C)=C([N+](=O)[O-])C1c1ccccc1C(F)(F)F` (centres unmarked) [Bay K8644], the EC50 stood at 204 nM in data set [1] (holding [K+] 20 mM, read-out: EC50, activation of LTCCs (calcium flux)) and 40.6 nM in the data set with LTCC currents (Vhold -50 mV, Vtest -20 mV, read-out: EC50, Bay K8644 concentration dependence (patch clamp)).

In the case of `COC(=O)C1=C(C)NC(C)=C(C(=O)OC2CCCN(Cc3ccccc3)C2)C1c1cccc([N+](=O)[O-])c1` (centres unmarked) [Benidipine], the IC50 in data set [1] (setting [2]) was 104 nM.

Turning to `CN1CCC(=C2c3ccccc3C=Cc3ccccc32)CC1` [Cyproheptadine], the “% block of LTCC currents” value with LTCC currents (3 µM compound, -50/-20 mV, 300 nM Bay K8644) worked out at 75.2 ± 9.1%. On CaV1.2, this compound registered an inhibition at 3 µM of 52.3 ± 6.1%.

As for `COc1ccc(CCN(C)CCCC(C#N)(c2cc(OC)c(OC)c(OC)c2)C(C)C)cc1OC` (centres unmarked) [D600], at Phenylalkylamine site (n = 4, read-out: IC50 positive control, phenylalkylamine site binding), the IC50 was determined as 26.8 ± 3.6 nM.

On to `CCOC(=O)C1=C(C)NC(C)=C(C(=O)OC)C1c1cccc(Cl)c1Cl` (centres unmarked) [Felodipine], for which the 50% inhibitory concentration (IC50) in data set [1] (setting [2]) stood at 57 nM.

`Fc1ccc(C(OCCN2CCN(CCCc3ccccc3)CC2)c2ccc(F)cc2)cc1` [GBR 12909]: the 50% inhibitory concentration (IC50) in data set [1] (setting [2]) turned out to be 680 nM.

As for `COC(=O)C1=C(C)NC(C)=C(C(=O)OC(C)C)C1c1cccc2nonc12` (centres unmarked) [Isradipine], in data set [1] (setting [2]), the IC50 amounted to 8 nM.

On to `CCOC(=O)C1=C(C)NC(C)=C(C(=O)OCC)C1c1ccccc1/C=C/C(=O)OC(C)(C)C` [Lacidipine], for which the IC50 in data set [1] (setting [2]) turned out to be 453 nM.

`COC(=O)C1=C(C)NC(C)=C(C(=O)OCCN(C)Cc2ccccc2)C1c1cccc([N+](=O)[O-])c1` (centres unmarked) [Nicardipine]: the IC50 in data set [1] (setting [2]) amounted to 290 nM.

Turning to `O=C(Nc1ccc([N+](=O)[O-])cc1Cl)c1cc(Cl)ccc1O` [Niclosamide], the Ki at Phenylalkylamine site (rat cortical homogenates), at Benzothiazepine site (rat cortical homogenates) and on DHP site (rat cortical homogenates) was more than 30000 nM in each case. The half-inhibitory concentration (IC50) was found to be 79.5 ± 12.8 nM in data set [1] (PW library screen hit confirmation, 1.1 µM Bay K8644, holding [K+] 20 mM, listed as niclosamide, read-out: FLIPR IC50 Rat cortical culture); 80 nM in data set [1] (setting [2]); 183 ± 28.2 nM in the data set with LTCC currents (setting [4]). The “maximal % inhibition of LTCC-mediated calcium flux” value in data set [1] (cortical cultures, n = 3) worked out at 100%. The “max % inhibition of LTCC currents” value is reported as “full efficacy” with LTCC currents (setting [3]) and 100% in the data set with LTCC currents (Vhold/Vtest -50/-20 mV, 300 nM Bay K8644, listed as niclosamide). Further, the “20–80% rise time” value in the data set with LTCC currents (at -20 mV, in presence of 200 nM compound) is on record as 16.1 ± 3.5 ms. In addition, the “Current remaining after 400 ms of depolarization, % of the peak” value in the data set on LTCC currents (depolarization to -20 mV, 200 nM compound) was 41.9 ± 7.5%. In addition, at CaV1.2, testing at 0.1 µM gave an inhibition of 80.6 ± 4.9%.

Turning to `COC(=O)C1=C(C#N)NC(C)=C(C(=O)OC(C)C)C1c1cccc([N+](=O)[O-])c1` (centres unmarked) [Nilvadipine], the concentration for half-maximal inhibition (IC50) in data set [1] (setting [2]) is 28 nM.

Regarding `COCCOC(=O)C1=C(C)NC(C)=C(C(=O)OC(C)C)C1c1cccc([N+](=O)[O-])c1` (centres unmarked) [Nimodipine], the IC50 was 142 nM in data set [1] (setting [5]); 110 nM in data set [1] (setting [2]); 28.3 ± 6.5 nM with LTCC currents (Vhold/Vtest -50/0 mV, control (no Bay K), read-out: IC50, patch clamp current); 415 nM in the data set with LTCC currents (Vhold/Vtest -50/-20 mV, 300 nM Bay K8644, listed as nimodipine, read-out: IC50, LTCC currents); 401 ± 21.8 nM with LTCC currents (setting [4]); 24.8 nM in the data set with LTCC currents (Vhold/Vtest -50/-20 mV, control (no Bay K), read-out: IC50, patch clamp current). Further, the 50% inhibitory concentration (IC50) with LTCC currents (Vhold/Vtest -90/0 mV, control (no Bay K), read-out: IC50, patch clamp current) was 4800 nM. The “Block of Bay K8644-evoked calcium fluorescent response” value in data set [1] (1.1 µM Bay K8644, holding [K+] 20 mM) is listed as “completely”; in data set [1] (1.1 µM Bay K8644, holding [K+] 20 mM, listed as nimodipine), “completely blocked”. Also, in the data set on LTCC currents (IC50 with 300 nM Bay K vs without, -50/-20 mV), the “Decrease of potency of inhibition by Bay K” value is given as 16.7 fold. The “max % inhibition (fraction of sensitive current)” value in the data set on LTCC currents (Vhold/Vtest -50/0 mV, control (no Bay K)) was 85.4 ± 3.7%; in the data set on LTCC currents (Vhold/Vtest -50/0 mV, control (no Bay K), listed as nimodipine) it was 85%; with LTCC currents (Vhold/Vtest -50/-20 mV, control (no Bay K)), 96.1 ± 0.8%; in the data set on LTCC currents (Vhold/Vtest -50/-20 mV, control (no Bay K), listed as nimodipine), 96%; in the data set with LTCC currents (Vhold/Vtest -90/0 mV, control (no Bay K)) it was 75%. The “max % inhibition of LTCC currents” value in the data set on LTCC currents (setting [3]) is given as 99.1 ± 1.1%; with LTCC currents (Vhold/Vtest -50/-20 mV, 300 nM Bay K8644, listed as nimodipine) it was 99%. Besides, the “Block of high [K+]-evoked calcium fluorescent response” value was “partially” in the data set on VGCCs and “partially blocked” in the data set on VGCCs (listed as nimodipine).

Turning to `CCOC(=O)C1=C(C)NC(C)=C(C(=O)OC)C1c1cccc([N+](=O)[O-])c1` (centres unmarked) [Nitrendipine], the IC50 came out at 140 nM in data set [1] (setting [2]) and 0.19 ± 0.03 nM on DHP site (n = 4, read-out: IC50 positive control, DHP site binding).

`COc1ccc([C@@H]2Sc3ccccc3N(CCN(C)C)C(=O)[C@@H]2OC(C)=O)cc1` [diltiazem]: the IC50 on Benzothiazepine site (n = 4, read-out: IC50 positive control, benzothiazepine site binding) worked out at 42.7 ± 6.8 nM; in data set [1] (setting [5]), 27100 nM.

In the case of `CC(NCCC(c1ccccc1)c1ccccc1)c1ccccc1` (centres unmarked) [fendiline], in data set [1] (setting [2]), the 50% inhibitory concentration (IC50) worked out at 820 nM.

For `O=C1NCN(c2ccccc2)C12CCN(CCCC(c1ccc(F)cc1)c1ccc(F)cc1)CC2` [fluspirilene], the half-maximal inhibitory concentration (IC50) in data set [1] (setting [2]) is 760 nM.

As for `Cc1cccc(C)c1NC(=O)CN1CCN(CCCC(c2ccc(F)cc2)c2ccc(F)cc2)CC1` [lidoflazine], in data set [1] (setting [2]), the concentration for half-maximal inhibition (IC50) is 710 nM.
